Drawing on ChEMBL document CHEMBL3046210, “6-Imino-2-thioxo-pyrimidinones as a new class of dipeptidyl peptidase IV inhibitors” (Med Chem Res, 2011), this text covers Activity for eight compounds.

In series [1] the test system is HepG2. As to the kind of experiment: Cytotoxicity against Homo sapiens (human) HepG2 cells up to 0.1 mM after 24 hr by MTS assay. Format: cell-based. Conditions: hepg2, 24 h.
For series [2], the system named is THP-1. As to the kind of experiment: Cytotoxicity against Homo sapiens (human) THP1 cells up to 0.1 mM after 24 hr by MTS assay. Format: cell-based. Conditions: thp-1, 24 h. For orientation: Formazan colour is commonly taken as a measure of viable cells.

As for `COc1cc(CC2(C)C(=N)NC(=S)NC2=O)cc(OC)c1OC` (stereo unspecified), the Activity entry in series [1] and in series [2] was “Non-toxic” each time.

In the case of `COc1cc(CC2(C(C)C)C(=N)NC(=S)NC2=O)cc(OC)c1OC` (stereo unspecified), the Activity result in series [1] and in series [2] was “Non-toxic” in each case.

Take `COc1cc(CC2(Cc3cc(OC)c(OC)c(OC)c3)C(=N)NC(=S)NC2=O)cc(OC)c1OC`: the Activity entry in series [1] and in series [2] was “Non-toxic” each time.

On to `CCC1(Cc2cc(OC)c(OC)c(OC)c2)C(=N)NC(=S)NC1=O` (stereo unspecified), for which the Activity entry in series [1] and in series [2] was “Non-toxic” each time.

For `C=CCC1(Cc2cc(OC)c(OC)c(OC)c2)C(=N)NC(=S)NC1=O` (stereo unspecified), the Activity result in series [1] and in series [2] was “Non-toxic” throughout.

In the case of `COc1cc(CC2C(=N)NC(=S)NC2=O)cc(OC)c1OC` (stereo unspecified), the Activity entry in series [1] and in series [2] was “Non-toxic” throughout.

For `CCCC1(Cc2cc(OC)c(OC)c(OC)c2)C(=N)NC(=S)NC1=O` (stereo unspecified), the Activity result in series [1] and in series [2] was “Non-toxic” each time.

On to `CCCCC1(Cc2cc(OC)c(OC)c(OC)c2)C(=N)NC(=S)NC1=O` (stereo unspecified), for which the Activity entry in series [1] and in series [2] was “Non-toxic” in each case.
